The test system of series [1] is Drp1 knocked-down A549 cells. The experiment in a line: MFC in Drp1 knocked-down A549 cells with FCCP-induced fission. Type of series: cell-based, human. Particulars: FIG. 5B.
Procedure: Higher MFC indicates more fragmented mitochondrial network.
Carbonyl cyanide-4-(trifluoromethoxy) phenylhydrazone (FCCP) was added, a mitochondrial oxidative phosphorylation uncoupler, to cells treated with siDrp1.
The test system of the next series is mitochondrial complex I. The experiment in a line: Mitochondrial complex I activity in A549 cells. Type of series: cell-based, human. Particulars: mdivi-1 50 μM, Drpitor1a 0.5 μM; FIG. 5C.
Series [2] concerns A549. The experiment in a line: Cell proliferation assay (EdU) in A549 cells. In kind it is cell-based, human. As to conditions: for Cell proliferation: A549, 0.5 μM of Drpitor1a, 48 hours; for Percentage of EdU incorporated cells: mdivi-1 50 μM, Drpitor1 0.75 μM, Drpitor1a 0.5 μM, FIG. 6A. The procedure:
(§1) Cell proliferation assay: Cell proliferation was measured 48 hours post compound treatment using Click-iT® EdU Alexa Fluor® 488 Imaging Kit (available from Thermo Fisher Scientific) according to manufacturer's protocol. 1.0×10^5 cells were seeded per well in 6-well plates and compounds were added 24 hours after seeding. EdU was allowed to incorporate 10 hours before flow cytometry. Percentage of cells incorporated with EdU in each group was determined using SONY SH800S flow cytometer and compared between control group and treatment groups.

Series [3] concerns SK-MES-1. The experiment in a line: Cell proliferation assay (EdU) in SK-MES-1 cells. In kind it is cell-based. As to conditions: 0.5 μM of Drpitor1a. The method, then: as §1
The subject of series [4] is SK-LU-1. The experiment in a line: Cell proliferation assay (EdU) in SK-LU-1 cells. Type of series: cell-based. Particulars: 0.5 μM of Drpitor1a. The procedure:
as §1

In series [5] the test system is SW 900. The experiment in a line: Cell proliferation assay (EdU) in SW 900 cells. Type of series: cell-based. As to conditions: 0.5 μM of Drpitor1a. The procedure: as §1
Series [6] has as its system MCF7. The experiment in a line: Cell proliferation assay (EdU) in MCF7 cells. In kind it is cell-based. Particulars: 0.5 μM of Drpitor1a. The method, then:
as §1

Another series relates to PAH PASMC cell lines. The experiment in a line: Cell proliferation of PAH PASMC cell lines. Type of series: cell-based, human. The arrangement: unit: % EdU-positive cells. Particulars: 1.0 μM of Drpitor1a. The method, then:
as §1

For series [7], the system named is Daoy cells (Medulloblastoma cells). The experiment in a line: Cell proliferation of Daoy cells. In kind it is cell-based. As to conditions: 0.15~2.5 μM of Drpitor1a, Ctrl = 1. The method, then:
as §1

The subject of series [8] is U373 (Glioblastoma cells). The experiment in a line: Cell proliferation of U373 cells. In kind it is cell-based. As to conditions: 0.15~2.5 μM of Drpitor1a, Ctrl = 87.2. The procedure: as §1
The test system of another series is U87 (Glioblastoma cells). The experiment in a line: Cell proliferation of U87 cells. As to conditions: 0.15~2.5 μM of Drpitor1a, Ctrl = 1. Type of series: cell-based. The method, then: as §1
For series [9], the system named is A549. The experiment in a line: Colony formation assay in A549 cells. Particulars: 0.5 μM of Drpitor1a. Type of series: cell-based, human. The procedure: (§2) Colony formation assay: Cells were seeded in 6-well plates and optimal concentrations of compounds were added 24 hours after seeding. After 48 hours of compound treatment, cells were disassociated with 0.25% trypsin-EDTA (25200114, Gibco, Burlington, ON, Canada) and reseeded in a 48-well plate at a density of 200 live cells/mL. After 7-10 days of culture, cells were fixed with 4% paraformaldehyde and then stained with 1% crystal violet (V5265, Millipore Sigma, Etobicoke, ON, Canada). Images of cell colonies were taken by a Panasonic LX3 digital camera (Kadoma, Osaka, Japan).

For series [10], the system named is SK-MES-1. The experiment in a line: Colony formation assay in SK-MES-1 cells. In kind it is cell-based. As to conditions: 0.5 μM of Drpitor1a. The method, then:
as §2

Series [11] has as its system SK-LU-1. The experiment in a line: Colony formation assay in SK-LU-1 cells. Type of series: cell-based. Particulars: 0.5 μM of Drpitor1a. The procedure: as §2
Series [12] concerns MCF7. The experiment in a line: Colony formation assay in MCF7 cells. Type of series: cell-based. As to conditions: 0.5 μM of Drpitor1a. The method, then:
as §2

Series [13] concerns A549. The experiment in a line: Apoptosis assay (Annexin V/PI) in A549 cells. In kind it is cell-based, human. Particulars: 1.0 μM of Drpitor1, 0.25-0.5 μM of Drpitor1a, 48 hours. The method, then: Apoptosis assay: Cell apoptosis was determined by the Annexin V+ propidium iodide (PI) method using Alexa Fluor 488 Annexin V/Dead Cell Apoptosis Kit (available from ThermoFisher Scientific). A549 cells were collected 48 hours after compound treatment. Percentage of Annexin V (+) and PI (+) cells was determined using SONY S[…] flow cytometer and compared between control group and treatment groups.

The test system of series [14] is mutant mouse Drp1 K38A in siDrp1-treated A549 cells. The experiment in a line: MFC in A549 cells transfected with siDrp1+mDrp1 K38A. As to conditions: FIG. 5A.
A further series relates to A549 cells. The experiment in a line: Mitochondrial morphology analysis (MFC, machine learning) in A549 cells. As to conditions: for Concentration (dose) at which mitochondrial fission was inhibited: in vitro screening.
Series [15] has as its system SK-MES-1. The experiment in a line: Mitochondrial fragmentation count in SK-MES-1 cells. In kind it is cell-based. As to conditions: 0.1-0.5 μM of Drpitor1a.
The subject of series [16] is SK-LU-1. The experiment in a line: Mitochondrial fragmentation count in SK-LU-1 cells. Type of series: cell-based. As to conditions: 0.1-0.5 μM of Drpitor1a.
Series [17] concerns MCF7. The experiment in a line: Mitochondrial fragmentation count in MCF7 cells. Type of series: cell-based. Particulars: 0.1-0.5 μM of Drpitor1a.
In series [18] the test system is SW 900. The experiment in a line: Mitochondrial fragmentation count in SW 900 cells. Type of series: cell-based. As to conditions: 0.1-0.5 μM of Drpitor1a.
Series [19] relates to SK-MES-1. The experiment in a line: Apoptosis assay (Annexin V/PI) in SK-MES-1 cells. In kind it is cell-based. As to conditions: 0.25-0.5 μM of Drpitor1a.
Procedure: (§4) Apoptosis assay: Cell apoptosis was determined by the Annexin V+ propidium iodide (PI) method using Alexa Fluor 488 Annexin V/Dead Cell Apoptosis Kit (available from ThermoFisher Scientific). A549 cells were collected 48 hours after compound treatment. Percentage of Annexin V (+) and PI (+) cells was determined using SONY S[MUT] flow cytometer and compared between control group and treatment groups.
Series [20] has as its system SK-LU-1. The experiment in a line: Apoptosis assay (Annexin V/PI) in SK-LU-1 cells. Type of series: cell-based. Particulars: 0.25-0.5 μM of Drpitor1a.
Procedure: as §4
For series [21], the system named is SW 900. The experiment in a line: Apoptosis assay (Annexin V/PI) in SW 900 cells. In kind it is cell-based. As to conditions: 0.25-0.5 μM of Drpitor1a.
Procedure: as §4
In series [22] the test system is A549 cells xenotransplant tumor. The experiment in a line: In vivo xenotransplant tumor model of human lung cancer. The arrangement: species or system mouse. Particulars: 10 mg/kg intraperitoneally and intratumorally; end of study. An excerpt: (§3) In vivo xenotransplant tumor model: BALB/c Rag2^−/−; IL2Rgc^−/− double knock out mice were kindly provided by Dr. M Ito, Central Institute for Experimental Animals, Kawasaki, Japan and were bred in the Animal Facility at Queen's University. Animal protocols were approved by the University Animal Care Committee of Queen's University. A xenotransplant mouse model of human lung cancer was established by subcutaneous injection of A549 cells ([…] per tumor) at the back flank regions. […] Equal volumes of solvents were injected as control. […] Tumor length and width was measured every 2 days. Animals were euthanized with cervical dislocation under 5% isoflurane inhalation followed by tumor collection. Blood samples were collected for liver and kidney toxicity studies just before euthanasia.

Series [23] can be described thus: Liver and kidney toxicity (blood samples), body weight in xenotransplant mice.
From the text: as §3

For series [24], the system named is right ventricle ischemia-reperfusion injury. Particulars: 0.5 μM in perfusate; ex vivo rat heart.
Procedure: Briefly, Sprague-Dawley rats were anesthetized with an intraperitoneal injection of ketamine (75 mg/kg)/xylazine (10 mg/kg). The hearts were harvested and perfused with oxygenated Krebs' solution at 37° C. at a constant pressure of 85 cmH2O on a Langendorff apparatus. RV pressure was measured by a fluid-filled balloon placed in the RV connected to a pressure transducer (Harvard Apparatus; Holliston, Mass., USA). High fidelity signals were recorded using PowerLab 8/35 data acquisition hardware and analyzed using LabChart Pro 8 software (AD Instruments; Colorado Springs, Colo., USA).
IR protocol: Hearts were stabilized for 10 minutes before the IR experiment. Two consecutive cycles of 20 minutes of global ischemia followed by 20 minutes of reperfusion were performed. […] Same volume of DMSO was used as a negative control for test compound. […]
Mitochondrial superoxide imaging and quantification: RV tissues collected from Langendorff RV-IR experiments were cut into pieces of 1×1×1 mm^3 and were incubated with 5 μM of MitoSOX™ Red mitochondrial superoxide indicator (available from Molecular Probes™) at 37° C. for 15 minutes. […] Intensity of the MitoSOX™ Red mitochondrial superoxide indicator was analyzed by the Leica LAS X software.
Test compound was added to the perfusate prior to IR. […] After IR, RV myocardium was collected and mitochondrial superoxide was measured.
The mark [25] stands for this setting: 10 mg/kg of Drpitor1a, blood before euthanasia.

Turning to `N#CC(C#N)=NNc1ccc(OC(F)(F)F)cc1` [FCCP, carbonyl cyanide-4-(trifluoromethoxy)phenylhydrazone, reference compound], the “Mitochondrial fission in Drp1 knocked-down A549 cells” value in series [1] was “caused mitochondrial fission”.

On to `COc1cc(-n2c(=S)[nH]c3ccccc3c2=O)c(Cl)cc1Cl` [mdivi-1, mitochondrial division inhibitor 1, reference compound], for which the “Mitochondrial complex I activity in A549 cells” value with mitochondrial complex I was “no significant change”. Also, the Cell proliferation in the series on A549 [2] came out at 32.43 ± 1.481; in the series with SK-MES-1 [3], 24.97 ± 3.38; with SK-LU-1 [4] it was 29.5 ± 1.652; in the series with SW 900 [5], 50.1 ± 0.7211; in the series on MCF7 [6], 8.217 ± 1.256; in the series on PAH PASMC cell lines (PAH PASMC cell line P1), 7.38 ± 0.1762. In addition, the Cell proliferation is 0.3567 ± 0.04372 in the series with PAH PASMC cell lines (PAH PASMC cell line P3); 7.78 ± 0.1882 with PAH PASMC cell lines (PAH PASMC cell line P7); 0.8464 ± 0.008105 in [7]; 65.43 ± 0.06667 in [8]; 0.9552 ± 0.01912 in the series on U87 (Glioblastoma cells). Moreover, in the series on A549 [2], the “Percentage of EdU incorporated cells” value was “significantly reduced”. Further, the Colony number in the series on A549 [9] is 0.5 ± 0.3416; in the series with SK-MES-1 [10] it was 5.5 ± 0.5627; in the series with SK-LU-1 [11], 2.5 ± 0.4282; with MCF7 [12], 7.167 ± 0.7491. Also, the Apoptosis in the series on A549 [13] came out at 15.3 ± 0.5213. Moreover, the “MFC in cells transfected with siDrp1+mDrp1 K38A” value in [14] was “this reduction was not seen”. In addition, in the series on A549 cells (A549 cells), the “Concentration giving the same degree of inhibition of mitochondrial fission (potency)” value came to 25 µM. Besides, the “Concentration (dose) at which mitochondrial fission was inhibited” value with A549 cells (A549 cells) came to 20 µM.

Regarding `N#Cc1cc2c3ccccc3[nH]c2c2ccccc12` [Compound 13], in the series on A549 cells (A549 cells), the “Concentration (dose) at which mitochondrial fission was inhibited” value was 20 µM. Moreover, the “Inhibition of mitochondrial fission (reduction in MFC) in in vitro screening” value with A549 cells (A549 cells, 17 compounds screened, FIG. 1) is “most significant inhibition of mitochondrial fission”.

With `O=C1c2ccncc2C(=O)c2c1[nH]c1ccccc21` [Drpitor1a], the MFC against SK-MES-1 [15] came out at 0.2291 ± 0.02596; against SK-LU-1 [16], 0.3367 ± 0.03623; against MCF7 [17] it was 0.5479 ± 0.05737; in the series with SW 900 [18] it was 0.3345 ± 0.0309. The “MFC on adding compound to siDrp1+FCCP treatment” value in series [1] (A549, Drpitor1a 0.25 μM) is “reduction of MFC was not seen”. For the same molecule, in the series with mitochondrial complex I, the “Mitochondrial complex I activity in A549 cells” value was “no significant change”. The “Dose dependence of effect on cell proliferation” value in the series on A549 [2] is recorded as “dose-dependent”. Also, the Cell proliferation is on record as 46 ± 0.8505 in the series on A549 [2]; 5.523 ± 0.3613 with SK-MES-1 [3]; 5.04 ± 0.5525 with SK-LU-1 [4]; 28.37 ± 0.3712 with SW 900 [5]; 3.437 ± 0.2325 in the series on MCF7 [6]; 3.367 ± 0.3335 in the series with PAH PASMC cell lines (PAH PASMC cell line P1). The Cell proliferation in the series on PAH PASMC cell lines (PAH PASMC cell line P3) is 0.7167 ± 0.05608; with PAH PASMC cell lines (PAH PASMC cell line P7), 9.68 ± 0.563; in series [7] it was 0.7078 ± 0.005519; in series [8], 45.33 ± 0.2728; in the series on U87 (Glioblastoma cells), 0.1084 ± 0.001408. In addition, in the series on A549 [2], the “Percentage of EdU incorporated cells” value is given as “significantly reduced”. In addition, the Colony number in the series on A549 [9] stood at 1.5 ± 0.2236; in the series on SK-MES-1 [10] it was 0 ± 0; in the series on SK-LU-1 [11] it was 0.6667 ± 0.3333; in the series on MCF7 [12], 0 ± 0. In addition, the Apoptosis in the series on A549 [13] was 25.06 ± 0.4675; with SK-MES-1 [19], 2.464 ± 0.131; in the series on SK-LU-1 [20], 3.6 ± 0.2292; in the series with SW 900 [21] it was 5.686 ± 0.1402. Also, in [22], the “Reduction in tumor volume” value is 43.8%. Besides, the “Reduction in tumor weight” value in series [22] was determined as 43.9%. In series [23] (setting [25]), this molecule had an Albumin of 26.75 ± 0.9465 g/L. For the same molecule, the BUN in series [23] (setting [25]) stood at 6.225 ± 1.186 mmol/L. In addition, the Cholesterol in series [23] (setting [25]) is given as 4.188 ± 0.3317 mmol/L. Besides, in series [23] (setting [25]), the Total bilirubin was 2.5 ± 0.324 µmol/L. In addition, in [23] (10 mg/kg, 22 days of therapy), the Body weight result is on record as “did not reduce body weight”. The “MFC in cells transfected with siDrp1+mDrp1 K38A” value in [14] was “this reduction was not seen”. In addition, the “Mean mitochondrial volume of cardiomyocytes during RV-IR” value in [24] was “increased mean mitochondrial volume”. For the same molecule, the “MitoSOX intensity (mitochondrial superoxide) in RV during IR” value in [24] is given as “lower MitoSOX intensity”. The “Concentration giving the same degree of inhibition of mitochondrial fission (potency)” value in the series on A549 cells (A549 cells) amounted to 0.5 µM. Moreover, the “Percentage area of elongated (filamentous) mitochondria, machine learning” value with A549 cells (FIG. 3B) was “increased percentage area of elongated mitochondria”.

For the origin of these results see US11229629B2, “Inhibitors of mitochondrial fission” (Queen's University at Kingston, priority 2019, dated 2022).
